The text below walks through data of US7871808B2, “Isolated microorganism having an ability to produce L-histidine” (priority 1999, dated 2011).

The test relates to mutant strain H-9341. In words: Comparative test of growth on agar plate culture medium containing primaquine (mutant strain). The format is cell-based, Escherichia coli. To be noted: 150 mg/liter primaquine disodium salt in agar plate medium, 1 to 10 cells/cm^2, 33° C. for 4 days.

Structures can show the parent of a compound that is named as a salt.

`COc1cc(NC(C)CCCN)c2ncccc2c1` (stereo not shown) [Primaquine disodium salt, primaquine disodium salt]: the “Growth or non-growth of the strain on agar plate medium” value is “+”.
